Test results published in patent US20230295234A1, “ANTIMICROBIAL PEPTIDOMIMETICS” (SPEXIS AG, priority 2020, published 2023).
Read-outs that look alike come from different tables or passages of the source. Bridge positions count the residues as written; N and C are the ends. Square brackets hold non-standard residues; d marks the D form. Triazole bridges read from a SMILES are 1,4-linked. Peptide text beside a SMILES is read from it. * marks the point of attachment. Pro(4R-NH2) = N[C@H]1CN[C@H](C(=O)O)C1; X2 = N=C(N)N1C[C@H](O)C[C@H]1C(=O)*; Aha = [N-]=[N+]=NCC[C@H](N)C(=O)O; Gly(N-2-aminoethyl) = NCCNCC(=O)O; Hyp = O=C(O)[C@@H]1C[C@@H](O)CN1; Gly(N(CH2)3NH2) = NCCCNCC(=O)O; Pen = CC(C)(S)[C@H](N)C(=O)O; dDab = NCC[C@@H](N)C(=O)O; Pra = C#CC[C@H](N)C(=O)O; Dab = NCC[C@H](N)C(=O)O

What was measured:
[1] = tested on: Escherichia coli ATCC 25922; details: ATCC 25922
Procedure, shortened: (§1)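 Standardized inocula (0.5 McFarland in saline, then diluted in MHII broth to approximately 5×10^5 CFU/mL) were exposed to two-fold dilution series of each peptide in the presence of polysorbate 80 (0.002% final).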

[2] = tested on: Klebsiella pneumoniae SSI3010; details: SSI3010
Procedure, shortened: as §1

[3] = tested on: Escherichia coli MCR-1 Af 45
Procedure, shortened: as §1

[4] = tested on: human red blood cells (hRBC); assay: Hemolysis of human red blood cells; type: cell-based; details: red cells of human, 1 h
Procedure, shortened: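 Percent hemolysis is OD540 of peptide-treated supernatant relative to water-lysed cells. Each peptide was tested at 200 μg/mL against 20% (v/v) washed human erythrocytes. Incubation was 1 h at 37 °C, 300 rpm.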

[5] = Mueller-Hinton broth II, 18-20 hours at 35° C.

Row | Escherichia coli ATCC 25922 MIC [1] | Klebsiella pneumoniae SSI3010 MIC [2] | Escherichia coli MCR-1 Af 45 MIC ([3]; MCR-1 Af 45) | Structure (SMILES) | Hemolysis at 0.2 g/L [4] | Escherichia coli MCR-1 Af 45 MIC [3, 5]
1 | 0.125 mg/L | 0.125 mg/L | 0.0625 mg/L | CC[C@H](C)[C@H](NC(=O)CN(CCCN)C(=O)[C@@H](NC(=O)CNCCCN)C(C)C)C(=O)N[C@H](C(=O)N[C@@H](Cc1ccc(O)cc1)C(=O)N[C@@H]1C(=O)N[C@@H](CC(N)=O)C(=O)N[C@@H](CCCNC(=N)N)C(=O)N[C@@H](CCN)C(=O)N[C@@H]([C@@H](C)O)C(=O)N[C@H](CCN)C(=O)N[C@@H](CCCCN)C(=O)N[C@H](C(=O)N[C@@H](CCN)C(=O)N[C@@H](CCCNC(=N)N)C(=O)N[C@@H](Cc2ccc(O)cc2)C(=O)O)CSSC1(C)C)[C@@H](C)CC [Example 32, Norn-Val-Norn-Ile-Ile-Tyr-Pen-Asn-Arg-Dab-Thr-^DDab-Lys-Cys-Dab-Arg-Tyr] (H-[Gly(N(CH2)3NH2)]V[Gly(N(CH2)3NH2)]IIY[Pen]NR[Dab]T[dDab]KC[Dab]RY-OH; disulfide 7-14) | 0% | –
2 | 0.125 mg/L | 0.25 mg/L | 0.0625 mg/L | CC[C@H](C)[C@H](NC(=O)[C@@H]1C[C@@H](O)CN1C(=O)[C@@H](NC(=O)[C@@H]1C[C@@H](O)CN1C(=O)[C@H](CCCCN)NC(=O)[C@@H](N)CCCCN)C(C)C)C(=O)N[C@H](C(=O)N[C@@H](Cc1ccc(O)cc1)C(=O)N[C@@H]1C(=O)N[C@@H](CC(N)=O)C(=O)N[C@@H](CCCNC(=N)N)C(=O)N[C@@H](CCN)C(=O)N[C@@H]([C@@H](C)O)C(=O)N[C@H](CCN)C(=O)N[C@@H](CCCCN)C(=O)N[C@H](C(=O)N[C@@H](CO)C(=O)N[C@@H](CCCNC(=N)N)C(=O)N[C@@H](Cc2ccc(O)cc2)C(=O)O)CSSC1(C)C)[C@@H](C)O [Example 123, Lys-Lys-Hyp-Val-Hyp-Ile-Thr-Tyr-Pen-Asn-Arg-Dab-Thr-^DDab-Lys-Cys-Ser-Arg-Tyr] (HELM PEPTIDE1{K.K.[Hyp].V.[Hyp].I.T.Y.[Pen].N.R.[Dab].T.[NCC[C@@H](N[*:1])C(=O)[*:2]].K.C.S.R.Y}$PEPTIDE1,PEPTIDE1,9:R3-16:R3$$$V2.0) | 0% | –
3 | 0.125 mg/L | 0.25 mg/L | 0.125 mg/L | CC[C@H](C)[C@H](NC(=O)[C@@H]1C[C@@H](O)CN1C(=O)[C@@H](NC(=O)CNCCCN)C(C)C)C(=O)N[C@H](C(=O)N[C@@H](Cc1ccc(O)cc1)C(=O)N[C@@H]1C(=O)N[C@@H](CC(N)=O)C(=O)N[C@@H](CCCNC(=N)N)C(=O)N[C@@H](CCN)C(=O)N[C@@H]([C@@H](C)O)C(=O)N[C@H](CCN)C(=O)N[C@@H](CCCCN)C(=O)N[C@H](C(=O)N[C@@H](CCN)C(=O)N[C@@H](CCCNC(=N)N)C(=O)N[C@@H](Cc2ccc(O)cc2)C(=O)O)CSSC1(C)C)[C@@H](C)O [Example 33, Norn-Val-Hyp-Ile-Thr-Tyr-Pen-Asn-Arg-Dab-Thr-^DDab-Lys-Cys-Dab-Arg-Tyr] (HELM PEPTIDE1{[NCCCNCC(=O)[*:2]].V.[Hyp].I.T.Y.[Pen].N.R.[Dab].T.[NCC[C@@H](N[*:1])C(=O)[*:2]].K.C.[Dab].R.Y}$PEPTIDE1,PEPTIDE1,7:R3-14:R3$$$V2.0) | 0% | –
4 | 0.25 mg/L | 0.25 mg/L | 0.125 mg/L | CC[C@H](C)[C@H](NC(=O)[C@@H](NC(=O)[C@@H]1C[C@@H](N)CN1C(=O)[C@@H](NC(=O)[C@@H]1C[C@@H](N)CN1)C(C)C)[C@@H](C)CC)C(=O)N[C@@H](Cc1ccc(O)cc1)C(=O)N[C@@H]1C(=O)N[C@@H](CC(N)=O)C(=O)N[C@@H](CCCNC(=N)N)C(=O)N[C@@H](CCN)C(=O)N[C@@H]([C@@H](C)O)C(=O)N[C@H](CCN)C(=O)N[C@@H](CCCCN)C(=O)N[C@H](C(=O)N[C@@H](CCN)C(=O)N[C@@H](CCCNC(=N)N)C(=O)N[C@@H](Cc2ccc(O)cc2)C(=O)O)CSSC1(C)C [Example 26, Pro((4R)NH2)-Val-Pro((4R)NH2)-Ile-Ile-Tyr-Pen-Asn-Arg-Dab-Thr-^DDab-Lys-Cys-Dab-Arg-Tyr] (H-[Pro(4R-NH2)]V[Pro(4R-NH2)]IIY[Pen]NR[Dab]T[dDab]KC[Dab]RY-OH; disulfide 7-14) | 0% | –
5 | 0.25 mg/L | 0.25 mg/L | 0.0625 mg/L | CC[C@H](C)[C@H](NC(=O)CN(CCN)C(=O)[C@@H](NC(=O)[C@@H]1C[C@@H](O)CN1C(=N)N)C(C)C)C(=O)N[C@H](C(=O)N[C@@H](Cc1ccc(O)cc1)C(=O)N[C@@H]1C(=O)N[C@@H](CC(N)=O)C(=O)N[C@@H](CCCNC(=N)N)C(=O)N[C@@H](CCN)C(=O)N[C@@H]([C@@H](C)O)C(=O)N[C@H](CCN)C(=O)N[C@@H](CCCCN)C(=O)N[C@H](C(=O)N[C@@H](CCN)C(=O)N[C@@H](CCCNC(=N)N)C(=O)N[C@@H](Cc2ccc(O)cc2)C(=O)O)CSSC1(C)C)[C@@H](C)O [Example 37, Gua-Hyp-Val-Ndab-Ile-Thr-Tyr-Pen-Asn-Arg-Dab-Thr-^DDab-Lys-Cys-Dab-Arg-Tyr] (X2-V[Gly(N-2-aminoethyl)]ITY[Pen]NR[Dab]T[dDab]KC[Dab]RY-OH; disulfide 6-13) | 0% | –
6 | 0.03125 mg/L | ≤0.125 mg/L | 0.0625 mg/L | CCCC[C@H](NC(=O)[C@H](CCCNC(=N)N)NC(=O)[C@H](CCCNC(=N)N)NC(=O)[C@@H]1CSSC[C@H](NC(=O)[C@H](Cc2ccc(O)cc2)NC(=O)[C@@H](NC(=O)[C@@H](NC(=O)[C@@H]2CCCN2C(=O)[C@@H](NC(=O)[C@@H]2CCCN2C(=O)[C@H](CCCCN)NC(=O)[C@@H](N)CCCCN)C(C)C)[C@@H](C)CC)[C@@H](C)CC)C(=O)N[C@@H](CC(N)=O)C(=O)N[C@@H](CCCNC(=N)N)C(=O)N[C@@H](CCN)C(=O)N[C@@H]([C@@H](C)O)C(=O)N[C@H](CCN)C(=O)N[C@@H](CCCCN)C(=O)N1)C(=O)O [Example 68] (HELM PEPTIDE1{K.K.P.V.P.I.I.Y.C.N.R.[Dab].T.[NCC[C@@H](N[*:1])C(=O)[*:2]].K.C.R.R.[Nle]}$PEPTIDE1,PEPTIDE1,9:R3-16:R3$$$V2.0) | 0% | –

The next lines start with the compound.

Row | Structure (SMILES) | Escherichia coli ATCC 25922 MIC [1] | Klebsiella pneumoniae SSI3010 MIC [2] | Escherichia coli MCR-1 Af 45 MIC ([3]; MCR-1 Af 45) | Hemolysis at 0.2 g/L [4] | Escherichia coli MCR-1 Af 45 MIC [3, 5]
7 | CC[C@H](C)[C@H](NC(=O)[C@@H](NC(=O)[C@@H]1CCCN1C(=O)[C@@H](N)C(C)C)[C@@H](C)CC)C(=O)N[C@@H](Cc1ccc(O)cc1)C(=O)N[C@H]1CSSC(C)(C)[C@@H](C(=O)N[C@@H](CCN)C(=O)N[C@@H](CCCNC(=N)N)C(=O)N[C@@H](Cc2ccc(O)cc2)C(=O)O)NC(=O)[C@H](CCCCN)NC(=O)[C@@H](CCN)NC(=O)[C@H]([C@@H](C)O)NC(=O)[C@H](CCN)NC(=O)[C@H](CCCNC(=N)N)NC(=O)[C@H](CC(N)=O)NC1=O [Example 141] (HELM PEPTIDE1{V.P.I.I.Y.C.N.R.[Dab].T.[NCC[C@@H](N[*:1])C(=O)[*:2]].K.[Pen].[Dab].R.Y}$PEPTIDE1,PEPTIDE1,6:R3-13:R3$$$V2.0) | 0.0625 mg/L | 0.25 mg/L | – | 0% | 0.0625 mg/L
8 | CCCC[C@H](NC(=O)[C@H](CCCNC(=N)N)NC(=O)[C@H](CCC(N)=O)NC(=O)[C@@H]1CSSC(C)(C)[C@H](NC(=O)[C@H](Cc2ccc(O)cc2)NC(=O)[C@@H](NC(=O)[C@@H](NC(=O)[C@@H]2C[C@@H](N)CN2C(=O)[C@@H](NC(=O)[C@@H]2CCCN2)C(C)C)[C@@H](C)CC)[C@@H](C)CC)C(=O)N[C@@H](CC(N)=O)C(=O)N[C@@H](CCCNC(=N)N)C(=O)N[C@@H](CCN)C(=O)N[C@@H]([C@@H](C)O)C(=O)N[C@H](CCN)C(=O)N[C@@H](CCCCN)C(=O)N1)C(=O)O [Example 3, Pro-Val-Pro((4R)NH2)-Ile-Ile-Tyr-Pen-Asn-Arg-Dab-Thr-^DDab-Lys-Cys-Gln-Arg-Nle] (HELM PEPTIDE1{P.V.[N[C@@H]1C[C@@H](C(=O)[*:2])N([*:1])C1].I.I.Y.[Pen].N.R.[Dab].T.[NCC[C@@H](N[*:1])C(=O)[*:2]].K.C.Q.R.[Nle]}$PEPTIDE1,PEPTIDE1,7:R3-14:R3$$$V2.0) | 0.125 mg/L | 0.25 mg/L | 0.25 mg/L | 0% | –
9 | CC[C@H](C)[C@H](NC(=O)[C@@H](NC(=O)[C@@H]1C[C@@H](O)CN1C(=O)[C@@H](N)C(C)C)[C@@H](C)CC)C(=O)N[C@@H](Cc1ccc(O)cc1)C(=O)N[C@H]1Cc2cn(nn2)CC[C@@H](C(=O)N[C@@H](CCN)C(=O)N[C@@H](CCCNC(=N)N)C(=O)N[C@@H](Cc2ccc(O)cc2)C(=O)O)NC(=O)[C@H](CCCCN)NC(=O)[C@@H](CCN)NC(=O)[C@H]([C@@H](C)O)NC(=O)[C@H](CCN)NC(=O)[C@H](CCCNC(=N)N)NC(=O)[C@H](CC(N)=O)NC1=O [Example 204] (H-V[Hyp]IIY[Pra]NR[Dab]T[dDab]K[Aha][Dab]RY-OH; triazole 6-13) | 0.25 mg/L | 2 mg/L | – | 0% | 0.25 mg/L
10 | CC[C@H](C)[C@H](NC(=O)[C@@H]1C[C@@H](O)CN1C(=O)[C@@H](N)C(C)C)C(=O)N[C@H](C(=O)N[C@@H](Cc1ccc(O)cc1)C(=O)N[C@@H]1C(=O)N[C@@H](CC(N)=O)C(=O)N[C@@H](CCCNC(=N)N)C(=O)N[C@@H](CCN)C(=O)N[C@@H]([C@@H](C)O)C(=O)N[C@H](CCCN)C(=O)N[C@@H](CCCCN)C(=O)N[C@H](C(=O)N[C@@H](CCN)C(=O)N[C@@H](CCCNC(=N)N)C(=O)N[C@@H](Cc2ccc(O)cc2)C(=O)O)CSSC1(C)C)[C@@H](C)O [Example 150] (HELM PEPTIDE1{V.[Hyp].I.T.Y.[Pen].N.R.[Dab].T.[NCCC[C@@H](N[*:1])C(=O)[*:2]].K.C.[Dab].R.Y}$PEPTIDE1,PEPTIDE1,6:R3-13:R3$$$V2.0) | 0.25 mg/L | 0.5 mg/L | – | 0% | 0.125 mg/L
